What was measured:
[1] = biological target: T1, 5-hydroxytryptamine receptor 2A (Homo sapiens, UniProt P28223); assay: Agonist activity at 5-HT2A (unknown origin) expressed in HEK293T cells co-transfected with RLuc-fused Galphaq/GFP2/Gy9/Gbeta3 assessed as Gaq hetero trimeric G protein activation at 0.1 to 10 uM incubated for 30 mins using coelenterazine 400a as a substrate by BRET assay relative to control; format: functional, cell-based; details: filed as agonist, dose 0.1-10 µM
[2] = biological target: T1, 5-hydroxytryptamine receptor 2A; assay: Agonist activity at RLuc-fused 5-HT2A (unknown origin) expressed in HEK293T cells co-transfected with mVenus-fused beta arrestin-2/GRK2 assessed as beta arrestin-2 recruitment at 0.1 to 10 uM incubated for 30 mins using coelenterazine h as a substrate by BRET assay relative to control; format: functional, cell-based; details: dose 0.1-10 µM
[3] = biological target: T1, 5-hydroxytryptamine receptor 2A; assay: Agonist activity at 5-HT2A (unknown origin) expressed in HEK293T cells co-transfected with RLuc-fused Galphaq/GFP2/Gy9/Gbeta3 assessed as Gaq hetero trimeric G protein activation incubated for 30 mins using coelenterazine 400a as a substrate by BRET assay; format: functional, cell-based
[4] = biological target: T1, 5-hydroxytryptamine receptor 2A; assay: Agonist activity at RLuc-fused 5-HT2A (unknown origin) expressed in HEK293T cells co-transfected with mVenus-fused beta arrestin-2/GRK2 assessed as beta arrestin-2 recruitment incubated for 30 mins using coelenterazine h as a substrate by BRET assay; format: functional, cell-based
[5] = biological target: T1, 5-hydroxytryptamine receptor 2A; assay: Displacement of [3H]-LSD form 5-HT2A (unknown origin) expressed in Flp-In-T-Rex-293 membrane by Microbeta scintillation counting analysis; format: cell membranes

T1 sequence (P28223 whole entry, the tested form may be a part): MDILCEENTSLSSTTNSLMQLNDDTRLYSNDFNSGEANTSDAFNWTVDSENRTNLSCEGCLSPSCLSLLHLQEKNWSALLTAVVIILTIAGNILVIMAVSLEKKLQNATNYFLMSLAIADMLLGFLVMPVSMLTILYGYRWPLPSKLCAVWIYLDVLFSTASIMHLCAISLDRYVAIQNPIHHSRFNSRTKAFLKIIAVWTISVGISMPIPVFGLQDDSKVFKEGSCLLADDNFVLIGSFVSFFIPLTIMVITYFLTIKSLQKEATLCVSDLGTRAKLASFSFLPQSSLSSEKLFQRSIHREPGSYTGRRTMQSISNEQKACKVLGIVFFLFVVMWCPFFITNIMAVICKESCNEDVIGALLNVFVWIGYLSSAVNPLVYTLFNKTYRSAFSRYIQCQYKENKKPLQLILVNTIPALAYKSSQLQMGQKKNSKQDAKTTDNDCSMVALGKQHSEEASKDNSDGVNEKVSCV

Fc1ccc2[nH]nc(C3=CCCNC3)c2c1
Emax [1]: 88.3%
Emax ([2]; filed as agonist): 96%

COc1cccc2[nH]cc(C3=CCCNC3)c12
Emax [1]: 96.1%
Emax ([2]; filed as agonist): 51.8%

CC(C)c1ccc2[nH]cc(C3=CCCNC3)c2c1
Emax [1]: 58.8%
Emax [2]: 31.4%

Cc1ccnc2[nH]cc(C3=CCCN(C)C3)c12
Emax [1]: 68.7%
Emax [2]: 38.9%

CN1CCC=C(c2n[nH]c3cc(F)ccc23)C1
Emax [1]: 47.1%
Emax [2]: 27%

Clc1ccc2[nH]nc(C3=CCCNC3)c2c1
Emax [1]: 94.8%
Emax ([2]; filed as agonist): 97%

Fc1ccc(Cl)c2[nH]nc(C3=CCCNC3)c12
Emax [1]: 106%
Emax ([2]; filed as agonist): 72.7%

COc1cccc2[nH]nc(C3=CCCNC3)c12
Emax [1]: 81.7%
Emax ([2]; filed as agonist): 75.9%

Clc1ccc2[nH]cc(C3=CCCNC3)c2c1
Emax [1]: 102%
Emax ([2]; filed as agonist): 77.3%

Cc1cccc2[nH]cc(C3=CCCNC3)c12
Emax [1]: 85.7%
Emax ([2]; filed as agonist): 42%

CN1CCC=C(c2c[nH]c3c(Cl)c(F)ccc23)C1
Emax [1]: 89.2%
Emax ([2]; filed as agonist): 56.5%

CN1CCC=C(c2n[nH]c3c(Cl)ccc(F)c23)C1
Emax [1]: 95.4%
Emax ([2]; filed as agonist): 50.9%

Fc1ccc2c(C3=CCCNC3)n[nH]c2c1
Emax [1]: 79.4%
Emax ([2]; filed as agonist): 59.4%

COc1ccnc2[nH]cc(C3=CCCN(C)C3)c12
Emax [1]: 67.1%
Emax [2]: 32.2%

COc1cccc2[nH]cc(C3=CCCN(C)C3)c12
Emax [1]: 91%
Emax ([2]; filed as agonist): 47.7%

C1=C(c2c[nH]c3cccc(-c4ccccc4)c23)CNCC1
Emax [1]: 59.6%
Emax [2]: 15.1%
EC50 [3]: 874 nM
EC50 [4]: 358 nM
Ki [5]: 14 nM

CN1CCC=C(c2n[nH]c3c(Cl)cc(F)cc23)C1
Emax [1]: 91.4%
Emax ([2]; filed as agonist): 88.5%

From ChEMBL document CHEMBL5370684, “Small-Molecule Heterocyclic Compounds: Gq-Biased Agonists for the 5-HT2A Receptor in Neuropsychiatric Treatment” (ACS Med Chem Lett, 2023)
